The target of this assay is (recombinant) catalytic domain of human Bub1 (amino acids 704-1085) (Homo sapiens (Human), UniProt O43683). In words: Bub1 kinase assay (TR-FRET). The settings on record: ATP 10 μM final, peptide substrate 1 μM final, 60 min at 22° C., read-out: Biological Assay: Bub1 kinase assay median IC50. Type of assay: biochemical. The method in brief: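 Compounds were serially diluted 1:3.4 from 2 mM DMSO stocks and incubated with the enzyme reaction for 60 min at 22° C. The reaction was stopped with EDTA, and biotinylated peptide phosphorylation was read by TR-FRET using Eu anti-mouse IgG, anti-phosphoserine antibody and streptavidin-XL665. IC50 was fitted by 4-parameter logistic to inhibition normalized to no-inhibitor and no-enzyme controls.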
(recombinant) catalytic domain of human Bub1 (amino acids 704-1085), sequence (O43683 704-1085): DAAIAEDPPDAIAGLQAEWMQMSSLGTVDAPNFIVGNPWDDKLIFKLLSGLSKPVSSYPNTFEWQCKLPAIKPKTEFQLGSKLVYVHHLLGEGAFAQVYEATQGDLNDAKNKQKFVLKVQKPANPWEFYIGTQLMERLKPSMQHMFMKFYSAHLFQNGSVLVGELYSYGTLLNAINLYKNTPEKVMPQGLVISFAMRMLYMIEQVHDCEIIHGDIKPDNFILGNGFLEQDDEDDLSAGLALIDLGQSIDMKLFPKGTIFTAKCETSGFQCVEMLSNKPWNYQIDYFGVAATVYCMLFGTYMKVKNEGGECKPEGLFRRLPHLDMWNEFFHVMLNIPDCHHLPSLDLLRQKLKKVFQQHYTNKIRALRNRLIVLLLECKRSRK
One may read the IC50 as the concentration that gives 50% inhibition. With `Cn1cc(NC(=O)Nc2cc(-c3[nH]c4c(c3Nc3ccccc3)C(=O)CCC4)ccn2)cn1` [Example 390, 1-(1-methyl-1H-pyrazol-4-yl)-3-{4-[4-oxo-3-(phenylamino)-4,5,6,7-tetrahydro-1H-indol-2-yl]pyridin-2-yl}urea], the IC50 was determined as 3.96 nM.
With `Cn1cc(NC(=O)Nc2cc(-c3[nH]c4c(c3Nc3ccccc3)C(=O)CC(C)(C)C4)ccn2)cn1` [Example 391, 1-{4-[6,6-dimethyl-4-oxo-3-(phenylamino)-4,5,6,7-tetrahydro-1H-indol-2-yl]pyridin-2-yl}-3-(1-methyl-1H-pyrazol-4-yl)urea] the figure was 4.52 nM; with `CNC(=S)Nc1cc(-c2[nH]c3c(c2Nc2ccccc2)C(=O)CCC3)ccn1` [Example 392, 1-methyl-3-{4-[4-oxo-3-(phenylamino)-4,5,6,7-tetrahydro-1H-indol-2-yl]pyridin-2-yl}thiourea], 87.5 nM.
With `CCNC(=S)Nc1cc(-c2[nH]c3c(c2Nc2ccccc2)C(=O)CCC3)ccn1` [Example 393, 1-ethyl-3-{4-[4-oxo-3-(phenylamino)-4,5,6,7-tetrahydro-1H-indol-2-yl]pyridin-2-yl}thiourea], the IC50 came out at 233 nM.
`O=C1CCCc2[nH]c(-c3ccnc(NC(=S)NCC(F)(F)F)c3)c(Nc3ccccc3)c21` [Example 394, 1-{4-[4-oxo-3-(phenylamino)-4,5,6,7-tetrahydro-1H-indol-2-yl]pyridin-2-yl}-3-(2,2,2-trifluoroethyl)thiourea]: the IC50 worked out at 1150 nM.
Turning to `O=C1CCCc2[nH]c(-c3ccnc(NC(=S)NC4CC4)c3)c(Nc3ccccc3)c21` [Example 395, 1-cyclopropyl-3-{4-[4-oxo-3-(phenylamino)-4,5,6,7-tetrahydro-1H-indol-2-yl]pyridin-2-yl}thiourea], the IC50 is 213 nM.
In the case of `CC(C)(C)NC(=S)Nc1cc(-c2[nH]c3c(c2Nc2ccccc2)C(=O)CCC3)ccn1` [Example 396, 1-tert-butyl-3-{4-[4-oxo-3-(phenylamino)-4,5,6,7-tetrahydro-1H-indol-2-yl]pyridin-2-yl}thiourea], the IC50 turned out to be 2460 nM.
With `O=C1CCCc2[nH]c(-c3ccnc(NC(=S)NC4CCCC4)c3)c(Nc3ccccc3)c21` [Example 397, 1-cyclopentyl-3-{4-[4-oxo-3-(phenylamino)-4,5,6,7-tetrahydro-1H-indol-2-yl]pyridin-2-yl}thiourea] the figure was 1050 nM.
For `O=C1CCCc2[nH]c(-c3ccnc(NC(=S)NCC4CC4)c3)c(Nc3ccccc3)c21` [Example 398, 1-(cyclopropylmethyl)-3-{4-[4-oxo-3-(phenylamino)-4,5,6,7-tetrahydro-1H-indol-2-yl]pyridin-2-yl}thiourea], the IC50 amounted to 552 nM.
For `CCCNC(=S)Nc1cc(-c2[nH]c3c(c2Nc2ccccc2)C(=O)CCC3)ccn1` [Example 399, 1-{4-[4-oxo-3-(phenylamino)-4,5,6,7-tetrahydro-1H-indol-2-yl]pyridin-2-yl}-3-propylthiourea], the IC50 turned out to be 292 nM.
The figure for `CC1(C)CC(=O)c2c([nH]c(-c3ccnc(C(F)F)c3)c2Nc2ccccc2)C1` [Example 400, 2-[2-(difluoromethyl)pyridin-4-yl]-6,6-dimethyl-3-(phenylamino)-1,5,6,7-tetrahydro-4H-indol-4-one] is 157 nM.
With `O=C1CCCc2[nH]c(-c3ccnc(C(F)F)c3)c(Nc3ccccc3)c21` [Example 401, 2-[2-(difluoromethyl)pyridin-4-yl]-3-(phenylamino)-1,5,6,7-tetrahydro-4H-indol-4-one] the figure was 354 nM; with `CC1(C)CC(=O)c2c([nH]c(-c3ccnc(C(F)F)c3)c2Nc2cccc(F)c2)C1` [Example 402, 2-[2-(difluoromethyl)pyridin-4-yl]-3-[(3-fluorophenyl)amino]-6,6-dimethyl-1,5,6,7-tetrahydro-4H-indol-4-one], 312 nM.
The figure for `COc1cnccc1-c1[nH]c2c(c1Nc1ccccc1)C(=O)CC(C)(C)C2` [Example 403, 2-(3-methoxypyridin-4-yl)-6,6-dimethyl-3-(phenylamino)-1,5,6,7-tetrahydro-4H-indol-4-one] is 9.3 nM; for `CCOc1cnccc1-c1[nH]c2c(c1Nc1ccccc1)C(=O)CC(C)(C)C2` [Example 404, 2-(3-ethoxypyridin-4-yl)-6,6-dimethyl-3-(phenylamino)-1,5,6,7-tetrahydro-4H-indol-4-one] it is 11.7 nM.
As to `CCCOc1cnccc1-c1[nH]c2c(c1Nc1ccccc1)C(=O)CC(C)(C)C2` [Example 405, 6,6-dimethyl-3-(phenylamino)-2-(3-propoxypyridin-4-yl)-1,5,6,7-tetrahydro-4H-indol-4-one], the IC50 came out at 8.4 nM.
The figure for `CC(C)Oc1cnccc1-c1[nH]c2c(c1Nc1ccccc1)C(=O)CC(C)(C)C2` [Example 406, 6,6-dimethyl-3-(phenylamino)-2-[3-(propan-2-yloxy)pyridin-4-yl]-1,5,6,7-tetrahydro-4H-indol-4-one] is 53.7 nM; for `CC1(C)CC(=O)c2c([nH]c(-c3ccncc3OC(C)(C)C)c2Nc2ccccc2)C1` [Example 407, 2-(3-tert-butoxypyridin-4-yl)-6,6-dimethyl-3-(phenylamino)-1,5,6,7-tetrahydro-4H-indol-4-one] it is 600 nM.
With `CC1(C)CC(=O)c2c([nH]c(-c3ccncc3OCC(F)F)c2Nc2ccccc2)C1` [Example 408, 2-[3-(2,2-difluoroethoxy)pyridin-4-yl]-6,6-dimethyl-3-(phenylamino)-1,5,6,7-tetrahydro-4H-indol-4-one] the figure was 6.42 nM; with `CC1(C)CC(=O)c2c([nH]c(-c3ccncc3OCCO)c2Nc2ccccc2)C1` [Example 409, 2-[3-(2-hydroxyethoxy)pyridin-4-yl]-6,6-dimethyl-3-(phenylamino)-1,5,6,7-tetrahydro-4H-indol-4-one], 9.63 nM; with `COCCOc1cnccc1-c1[nH]c2c(c1Nc1ccccc1)C(=O)CC(C)(C)C2` [Example 410, 2-[3-(2-methoxyethoxy)pyridin-4-yl]-6,6-dimethyl-3-(phenylamino)-1,5,6,7-tetrahydro-4H-indol-4-one], 3.55 nM.
With `CC1(C)CC(=O)c2c([nH]c(-c3ccncc3OCC3CC3)c2Nc2ccccc2)C1` [Example 411, 2-[3-(cyclopropylmethoxy)pyridin-4-yl]-6,6-dimethyl-3-(phenylamino)-1,5,6,7-tetrahydro-4H-indol-4-one], the IC50 turned out to be 6.86 nM.
With `CC1(C)CC(=O)c2c([nH]c(-c3ccncc3OCC(F)(F)F)c2Nc2ccccc2)C1` [Example 412, 6,6-dimethyl-3-(phenylamino)-2-[3-(2,2,2-trifluoroethoxy)pyridin-4-yl]-1,5,6,7-tetrahydro-4H-indol-4-one] the figure was 28.4 nM.
Consider `COc1cnccc1-c1[nH]c2c(c1Nc1ccccc1)C(=O)CCC2` [Example 413, 2-(3-methoxypyridin-4-yl)-3-(phenylamino)-1,5,6,7-tetrahydro-4H-indol-4-one], for which the half-maximal inhibitory concentration (IC50) turned out to be 43.2 nM.
`CC1(C)CC(=O)c2c([nH]c(-c3ccncc3)c2Nc2ccc(-c3ccccc3)cc2)C1` [Example 414, 3-(biphenyl-4-ylamino)-6,6-dimethyl-2-(pyridin-4-yl)-1,5,6,7-tetrahydro-4H-indol-4-one]: the IC50 was over 20000 nM.
Regarding `CC1(C)CC(=O)c2c([nH]c(-c3ccncc3)c2Nc2cccc(Cc3ccccc3)c2)C1` [Example 415, 3-[(3-benzylphenyl)amino]-6,6-dimethyl-2-(pyridin-4-yl)-1,5,6,7-tetrahydro-4H-indol-4-one], the IC50 amounted to 283 nM.
The figure for `CC1(C)CC(=O)c2c([nH]c(-c3ccncc3)c2Nc2ccccc2Cc2ccccc2)C1` [Example 416, 3-[(2-benzylphenyl)amino]-6,6-dimethyl-2-(pyridin-4-yl)-1,5,6,7-tetrahydro-4H-indol-4-one] is 689 nM; for `Cn1nccc1-c1cccc(Nc2c(-c3ccncc3)[nH]c3c2C(=O)CC(C)(C)C3)c1` [Example 417, 6,6-dimethyl-3-{[3-(1-methyl-1H-pyrazol-5-yl)phenyl]amino}-2-(pyridin-4-yl)-1,5,6,7-tetrahydro-4H-indol-4-one] it is 273 nM; for `CC1(C)CC(=O)c2c([nH]c(-c3ccncc3)c2Nc2cccc(-c3ccsc3)c2)C1` [Example 418, 6,6-dimethyl-2-(pyridin-4-yl)-3-{[3-(thiophen-3-yl)phenyl]amino}-1,5,6,7-tetrahydro-4H-indol-4-one] it is 26.6 nM.
The figure for `CC1(C)CC(=O)c2c([nH]c(-c3ccncc3)c2Nc2cccc(-c3ccco3)c2)C1` [Example 419, 3-{[3-(furan-2-yl)phenyl]amino}-6,6-dimethyl-2-(pyridin-4-yl)-1,5,6,7-tetrahydro-4H-indol-4-one] is 11.8 nM; for `CC1(C)CC(=O)c2c([nH]c(-c3ccncc3)c2Nc2cccc(-c3cccs3)c2)C1` [Example 420, 6,6-dimethyl-2-(pyridin-4-yl)-3-{[3-(thiophen-2-yl)phenyl]amino}-1,5,6,7-tetrahydro-4H-indol-4-one] it is 24.9 nM.
For the compound `CC1(C)CC(=O)c2c([nH]c(-c3ccncc3)c2Nc2cccc(Oc3ccccc3)c2)C1` [Example 421, 6,6-dimethyl-3-[(3-phenoxyphenyl)amino]-2-(pyridin-4-yl)-1,5,6,7-tetrahydro-4H-indol-4-one], the IC50 amounted to 200 nM.
The figure for `CC1(C)CC(=O)c2c([nH]c(-c3ccncc3)c2Nc2cc(-c3ccccc3)ccn2)C1` [Example 422, 6,6-dimethyl-3-[(4-phenylpyridin-2-yl)amino]-2-(pyridin-4-yl)-1,5,6,7-tetrahydro-4H-indol-4-one] is 330 nM; for `CC1(C)CC(=O)c2c([nH]c(-c3ccncc3)c2Nc2cccc(-c3ccccc3)n2)C1` [Example 423, 6,6-dimethyl-3-[(6-phenylpyridin-2-yl)amino]-2-(pyridin-4-yl)-1,5,6,7-tetrahydro-4H-indol-4-one] it is 26.8 nM.
